Laboratory results from ChEMBL document CHEMBL1201862, “PubChem BioAssay data set” (2004).
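Cells were grown in 96-well plates and exposed to each compound for 48 hours at five concentrations; endpoints were interpolated linearly between bracketing concentrations, or set to the highest concentration if not reached. GI50 marks 50% less growth.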 Active and inactive are the calls of the source. Cut-off read from the data, not from the text of the source: active = GI50 up to about 1.1 µM and inactive = higher.

Columns and labels:
Experiment in all cases: DTP human tumour cell line panel, 48 h
786-0 = tested on: 786-0
CAKI-1 = tested on: CAKI-1
DMS-273 = tested on: DMS-273
DU-145 = tested on: DU-145
HCT-116 = tested on: HCT-116
HOP-92 = tested on: HOP-92
IGROV-1 = tested on: IGROV-1
KM12 = tested on: KM12
MCF7 = tested on: MCF7
MDA-MB-435 = tested on: MDA-MB-435
NCI-H226 = tested on: NCI-H226
NCI-H522 = tested on: NCI-H522
NCI/ADR-RES = tested on: NCI/ADR-RES
OVCAR-3 = tested on: OVCAR-3
OVCAR-4 = tested on: OVCAR-4
SF-295 = tested on: SF-295
SK-MEL-28 = tested on: SK-MEL-28
SK-MEL-2 = tested on: SK-MEL-2
SK-OV-3 = tested on: SK-OV-3
SNB-19 = tested on: SNB-19

Row | SMILES | GI50 (786-0) | GI50 (CAKI-1) | GI50 (DMS-273) | GI50 (DU-145) | GI50 (HCT-116) | GI50 (HOP-92) | GI50 (IGROV-1) | GI50 (KM12) | GI50 (MCF7) | GI50 (MDA-MB-435) | GI50 (NCI-H226) | GI50 (NCI-H522) | GI50 (NCI/ADR-RES) | GI50 (OVCAR-3) | GI50 (OVCAR-4) | GI50 (SF-295) | GI50 (SK-MEL-28) | GI50 (SK-MEL-2) | GI50 (SK-OV-3) | GI50 (SNB-19)
1 | CNC(=O)N(C)/N=N/CCCl | > 100 µM (inactive) | > 100 µM (inactive) | > 100 µM (inactive) | > 100 µM (inactive) | > 100 µM (inactive) | > 100 µM (inactive) | > 100 µM (inactive) | > 100 µM (inactive) | > 100 µM (inactive) | > 100 µM (inactive) | > 100 µM (inactive) | > 100 µM (inactive) | > 100 µM (inactive) | > 100 µM (inactive) | > 100 µM (inactive) | > 100 µM (inactive) | > 100 µM (inactive) | > 100 µM (inactive) | > 100 µM (inactive) | > 100 µM (inactive)
2 | C/C1=C\[C@H](C)C[C@H](C)OC(=O)C[C@H](c2ccc(O)cc2)NC(=O)[C@@H](Cc2c(Br)[nH]c3ccccc23)N(C)C(=O)[C@H](C)NC(=O)[C@@H](C)C1 [JASPAMIDE] | 0.128 µM (active) | 0.092 µM (active) | 0.308 µM (active) | 0.0594 µM (active) | 0.196 µM (active) | 0.237 µM (active) | 0.114 µM (active) | 0.264 µM (active) | 0.0895 µM (active) | 0.063 µM (active) | 0.245 µM (active) | 0.203 µM (active) | 0.367 µM (active) | 0.139 µM (active) | 0.173 µM (active) | 0.259 µM (active) | 0.124 µM (active) | – | 0.185 µM (active) | 0.213 µM (active)
